Legend:
[1] = test system: Corn Earworm (Helicoverpa zea); experiment: Insecticidal diet-surface test for corn earworm; type: in vivo; conditions: second-instar corn earworm, 50 ug/cm2 on diet surface, 5 days after treatment, dead insects of 8
Description: (§1) The compounds identified in Table 1 were prepared using the procedures illustrated in the foregoing examples, and the compounds were tested against beet armyworm and corn earworm as follows:
(§2) Insecticidal Test for Corn Earworm (Helicoverpa zea) and Beet Armyworm (Spodoptera exigua).
(§3) To prepare test solution, the test compound was formulated at 2000 ppm solution as 4 mg/2 mL of 9 acetone:1 tap water. 50 μL of the 2000 ppm (equivalent to 50 ug/cm^2 dose on diet surface area) test solution was pipetted upon the surface of 1 mL of lepidopteran diet (Southland Multi-Species Lepidopteran Diet) contained in each of eight wells per insect species (one well=1 replication). A second-instar corn earworm and beet armyworm was placed upon the treated diet in each well once the solvent had air-dried. Trays containing the treated diet and larvae were covered and then held in a growth chamber at 25° C., 50-55% RH, and 16 hr light:8 hr dark for 5 days. Observation were conducted 5 days after treatment and infestation. The number of dead insects of 8 per species per treatment was then determined and the results are given in Table 1 as percent control at a dose of […].
(§4) Keys to the table: Mass spectral data were obtained using liquid chromatography mass spectroscopy (LC-MS). The masses are detected using electrospray ionization (ESI) and reported as Mol Ion (M+H, M−H); AVG LAPHEG 50 refers to activity against beet army worm (Spodoptera exigua) as defined above; AVG HELIZE 50 refers to activity against corn ear worm (Helicoverpa zea) as described above.

[2] = test system: Beet Armyworm (Spodoptera exigua); experiment: Insecticidal diet-surface test for beet armyworm; type: in vivo; conditions: second-instar beet armyworm, 50 ug/cm2 on diet surface, 5 days after treatment, dead insects of 8
Description: as §1, §2, §3, §4

Compound	HELIZE 50 (ug/cm2), percent control [1]	LAPHEG 50 (ug/cm2), percent control [2]
Fc1cc(Nc2ccc(OC(F)(F)C(F)F)cc2)nc(NN=Cc2ccc(OC(F)(F)F)cc2)n1 [Compound 19]	13%	50%
Fc1cc(Nc2ccc(OC(F)(F)C(F)F)cc2)nc(NN=Cc2ccc(OC(F)(F)C(F)F)cc2)n1 [Compound 20]	25%	50%
OC(c1ccc(Nc2cc(F)nc(NN=Cc3ccc(OC(F)(F)F)cc3)n2)cc1)(C(F)(F)F)C(F)(F)F [Compound 21]	100%	100%
OC(c1ccc(Nc2cc(F)nc(NN=Cc3ccc(OC(F)(F)C(F)F)cc3)n2)cc1)(C(F)(F)F)C(F)(F)F [Compound 22]	100%	100%
COc1ccc(/C=N/Nc2nc(Cl)cc(Nc3ccc(F)c(C(F)(F)F)c3)n2)cc1 [Compound 23]	38%	50%
Fc1ccc(Nc2cc(Cl)nc(N/N=C/c3cccc(Cl)c3)n2)cc1C(F)(F)F [Compound 24]	100%	100%
Clc1ccc(/C=N/Nc2nc(Cl)cc(Nc3ccc(Cl)cc3)n2)cc1 [Compound 25]	100%	75%
FC(F)(F)Oc1ccc(/C=N/Nc2nc(Cl)cc(Nc3ccc(Cl)cc3)n2)cc1 [Compound 26]	100%	100%
Clc1ccc(Nc2cc(Cl)nc(N/N=C/c3ccc(N4CCCCC4)cc3)n2)cc1 [Compound 27]	100%	38%
Clc1ccc(Nc2cc(Cl)nc(N/N=C/c3cccc(Cl)c3)n2)cc1 [Compound 28]	50%	50%
COc1ccc(/C=N/Nc2nc(Cl)cc(Nc3ccc(Cl)cc3)n2)cc1 [Compound 29]	0%	63%
Fc1ccc(Nc2cc(Cl)nc(N/N=C/c3cccc(OC(F)(F)C(F)F)c3)n2)cc1C(F)(F)F [Compound 30]	13%	100%
FC(F)(F)c1ccc(/C=N/Nc2nc(Cl)cc(Nc3cccc(Cl)c3)n2)cc1 [Compound 31]	100%	100%
Clc1ccc(/C=N/Nc2nc(Cl)cc(Nc3cccc(Cl)c3)n2)cc1 [Compound 32]	88%	0%
N#Cc1ccc(/C=N/Nc2nc(Cl)cc(Nc3cccc(Cl)c3)n2)cc1 [Compound 33]	13%	13%
Clc1cc(Nc2cccc(Br)c2)nc(N/N=C/c2ccccc2Cl)n1 [Compound 34]	13%	25%
Clc1cccc(/C=N/Nc2nc(Cl)cc(Nc3cccc(Br)c3)n2)c1 [Compound 35]	25%	0%
Clc1ccc(/C=N/Nc2nc(Cl)cc(Nc3cccc(Br)c3)n2)cc1 [Compound 36]	38%	0%
FC(F)(F)Oc1ccc(/C=N/Nc2nc(Cl)cc(Nc3cccc(Br)c3)n2)cc1 [Compound 37]	100%	100%
Clc1cccc(/C=N/Nc2nc(Cl)cc(Nc3cccc(Cl)c3)n2)c1 [Compound 38]	0%	25%
FC(F)(F)Oc1ccc(/C=N/Nc2nc(Cl)cc(Nc3cccc(Cl)c3)n2)cc1 [Compound 39]	100%	100%
FC(F)(F)c1ccc(/C=N/Nc2nc(Cl)cc(Nc3cccc(Br)c3)n2)cc1 [Compound 40]	100%	100%
Fc1ccc(Nc2nc(N/N=C/c3ccc(OC(F)(F)F)cc3)nc(Cl)c2Cl)cc1C(F)(F)F [Compound 41]	75%	0%
Fc1ccc(Nc2nc(N/N=C/c3ccc(OC(F)(F)C(F)F)cc3)nc(Cl)c2Cl)cc1C(F)(F)F [Compound 42]	38%	38%
Clc1cccc(Nc2cc(Cl)nc(N/N=C/c3ccc(N4CCCCC4)cc3)n2)c1 [Compound 43]	63%	0%

Compound	HELIZE 50 (ug/cm2), percent control [1]	LAPHEG 50 (ug/cm2), percent control [2]
Clc1cccc(Nc2cc(Cl)nc(N/N=C/c3ccc(N4CCCC4)cc3)n2)c1 [Compound 44]	50%	0%
FC(F)C(F)(F)Oc1cccc(/C=N/Nc2nc(Cl)cc(Nc3ccc(Cl)cc3)n2)c1 [Compound 45]	63%	63%
FC(F)(F)c1ccc(/C=N/Nc2nc(Cl)cc(Nc3ccc(Cl)cc3)n2)cc1 [Compound 46]	100%	100%
FC(F)C(F)(F)Oc1cccc(Nc2cc(Cl)nc(N/N=C/c3ccc(OC(F)(F)F)cc3)n2)c1 [Compound 47]	100%	100%
Fc1ccc(/C=N/Nc2nc(Cl)cc(Nc3cccc(OC(F)(F)C(F)F)c3)n2)cc1C(F)(F)F [Compound 48]	88%	25%
OC(c1cccc(Nc2cc(Cl)nc(N/N=C/c3ccc(OC(F)(F)F)cc3)n2)c1)C(F)(F)F (centres unmarked) [Compound 49]	50%	88%
OC(c1cccc(Nc2cc(Cl)nc(N/N=C/c3ccc(OC(F)(F)C(F)F)cc3)n2)c1)C(F)(F)F (centres unmarked) [Compound 50]	0%	63%
Fc1ccc(/C=N/Nc2nc(Cl)cc(Nc3cccc(Cl)c3)n2)cc1C(F)(F)F [Compound 51]	50%	75%
Fc1ccc(/C=N/Nc2nc(Cl)cc(Nc3cccc(Br)c3)n2)cc1C(F)(F)F [Compound 52]	75%	38%
CC(C)(C)C(=O)OC(c1cccc(Nc2cc(Cl)nc(N/N=C/c3ccc(OC(F)(F)F)cc3)n2)c1)C(F)(F)F (centres unmarked) [Compound 53]	0%	38%
FC(F)(F)Oc1ccc(/C=N/Nc2nc(Nc3cccc(C(F)(F)F)c3)cc(C(F)(F)F)n2)cc1 [Compound 54]	100%	100%
FC(F)(F)c1cccc(Nc2cc(C(F)(F)F)nc(N/N=C/c3cccc(Br)c3)n2)c1 [Compound 55]	88%	75%
Fc1ccc(Nc2cc(C(F)(F)F)nc(N/N=C/c3ccc(OC(F)(F)F)cc3)n2)cc1C(F)(F)F [Compound 56]	100%	100%
Fc1ccc(Nc2cc(C(F)(F)F)nc(N/N=C/c3cccc(Br)c3)n2)cc1C(F)(F)F [Compound 57]	100%	100%
CN(/N=C/c1ccc(OC(F)(F)C(F)F)cc1)c1nc(Cl)cc(Nc2ccc(F)c(C(F)(F)F)c2)n1 [Compound 58]	100%	100%
Fc1ccc(Nc2cc(Cl)nc(N/N=C/c3ccc(OC(F)(F)C(F)F)cc3)n2)cc1C(F)(F)F [Compound 59]	100%	100%
FC(F)(F)Oc1ccc(/C=N/Nc2nc(Nc3ccc(OC(F)(F)F)cc3)cc(C(F)(F)F)n2)cc1 [Compound 60]	100%	100%
CN(/N=C/c1ccc(OC(F)(F)F)cc1)c1nc(Nc2ccc(OC(F)(F)F)cc2)cc(C(F)(F)F)n1 [Compound 61]	88%	88%
Fc1ccc(Nc2cc(N3CCOCC3)nc(N/N=C/c3ccc(OC(F)(F)F)cc3)n2)cc1C(F)(F)F [Compound 62]	100%	100%
Fc1ccc(Nc2cc(OCC(F)(F)F)nc(N/N=C/c3ccc(OC(F)(F)F)cc3)n2)cc1C(F)(F)F [Compound 63]	100%	100%
COCCNc1cc(Nc2ccc(F)c(C(F)(F)F)c2)nc(N/N=C/c2ccc(OC(F)(F)F)cc2)n1 [Compound 64]	100%	100%
CCNCCNc1cc(Nc2ccc(F)c(C(F)(F)F)c2)nc(N/N=C/c2ccc(OC(F)(F)F)cc2)n1 [Compound 65]	100%	100%
Fc1ccc(Nc2cc(Cl)nc(N/N=C/c3ccc(Br)nc3)n2)cc1C(F)(F)F [Compound 66]	75%	100%
CCOc1ccc(/C=N/Nc2nc(Cl)cc(Nc3ccc(F)c(C(F)(F)F)c3)n2)cn1 [Compound 67]	100%	100%

Reference: US8598182B2, “Insecticidal pyrimidinyl aryl hyrdrazones” (Dow AgroSciences, LLC., priority 2007, dated 2013)
